Results on seven molecules are retold here after PubChem BioAssay (NCI).

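1) Cells in 96-well plates. 2) Compound, 48 h, 5 concentrations. 3) Linear interpolation between surrounding doses. 4) Unreached endpoint = highest concentration. GI50 is the concentration that inhibits growth by half. At the TGI there is no net growth.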

Test systems include 786-0 renal; ACHN renal; BT-549 breast; HS 578T breast; LOX IMVI melanoma; MDA-MB-231 breast; NCI/ADR-RES ovarian; SF-268 CNS; SR leukemia; T-47D breast.
Holding throughout (test): NCI-60 cell line screen, 48 h

`CCc1ccc(Oc2c(-c3ccc(OCc4ccc(Cl)cc4)cc3O)n[nH]c2C(F)(F)F)cc1`: the GI50 was 1.72 µM with 786-0 renal; 1.89 µM with ACHN renal; 2.04 µM in the experiment on BT-549 breast; 2.66 µM with HS 578T breast; 1.63 µM in the experiment on LOX IMVI melanoma; 1.91 µM in the experiment on MDA-MB-231 breast. Besides, the GI50 with NCI/ADR-RES ovarian was 2.11 µM; with SF-268 CNS, 1.74 µM; in the experiment on SR leukemia, 2.78 µM; in the experiment with T-47D breast, 1.71 µM. Moreover, the TGI with 786-0 renal was 3.27 µM; in the experiment on ACHN renal, 4 µM; with BT-549 breast, 3.95 µM; in the experiment on HS 578T breast, 8.11 µM; in the experiment on LOX IMVI melanoma, 3.01 µM; in the experiment with MDA-MB-231 breast it was 3.96 µM. Also, the TGI in the experiment with NCI/ADR-RES ovarian was determined as 4.85 µM; with SF-268 CNS it was 3.39 µM; with SR leukemia, 6.92 µM; with T-47D breast, 4.25 µM.
For the molecule `Cc1nn(CNc2ccccc2C(F)(F)F)c(=S)n1/N=C/c1cccc2cccnc12`, the GI50 with 786-0 renal is greater than 100 µM; in the experiment with ACHN renal, 95.3 µM; in the experiment on BT-549 breast, greater than 100 µM; with HS 578T breast it was greater than 100 µM; in the experiment on LOX IMVI melanoma it was 34.7 µM; with MDA-MB-231 breast it was 23.4 µM. Further, the GI50 in the experiment on NCI/ADR-RES ovarian was 35.3 µM; in the experiment with SF-268 CNS, 32.5 µM; in the experiment on SR leukemia, 20.2 µM; in the experiment with T-47D breast it was greater than 100 µM. Moreover, the TGI in the experiment with 786-0 renal was greater than 100 µM; with ACHN renal, greater than 100 µM; with BT-549 breast it was greater than 100 µM; in the experiment with HS 578T breast, greater than 100 µM; in the experiment with LOX IMVI melanoma it was greater than 100 µM; in the experiment on MDA-MB-231 breast it was 91.7 µM. The TGI in the experiment with NCI/ADR-RES ovarian is greater than 100 µM; with SF-268 CNS it was greater than 100 µM; in the experiment on SR leukemia, 67.6 µM; with T-47D breast, greater than 100 µM.
Turning to `Fc1ccc(-c2c(-c3ccncc3)nc3n2CCS3)cc1`, the GI50 in the experiment with 786-0 renal, in the experiment with ACHN renal, in the experiment with BT-549 breast, in the experiment on HS 578T breast, with LOX IMVI melanoma and with MDA-MB-231 breast was greater than 25 µM each time. The GI50 in the experiment on NCI/ADR-RES ovarian, with SF-268 CNS, in the experiment on SR leukemia and in the experiment with T-47D breast was greater than 25 µM each time. Besides, the TGI with 786-0 renal, in the experiment with ACHN renal, in the experiment with BT-549 breast, with HS 578T breast, with LOX IMVI melanoma and in the experiment on MDA-MB-231 breast was greater than 25 µM each time. For the same molecule, the TGI in the experiment on NCI/ADR-RES ovarian, with SF-268 CNS, in the experiment on SR leukemia and in the experiment on T-47D breast was greater than 25 µM each time.
Regarding `COc1ccc(Nc2nc3cc(N)cc(N)c3nc2-c2ccccc2)cc1`, the GI50 with 786-0 renal is 16 µM; with ACHN renal it was 15.3 µM; with BT-549 breast, 13.4 µM; in the experiment with HS 578T breast, 14.3 µM; in the experiment on LOX IMVI melanoma it was 16.1 µM; with MDA-MB-231 breast, 11.6 µM. Also, the GI50 in the experiment on NCI/ADR-RES ovarian is 18.9 µM; in the experiment with SF-268 CNS, 13 µM; in the experiment with SR leukemia it was 19.2 µM; with T-47D breast, 17.8 µM. Further, the TGI stood at 31.2 µM with 786-0 renal; 43.3 µM in the experiment on ACHN renal; 31.9 µM in the experiment with BT-549 breast; 46.5 µM in the experiment on HS 578T breast; 29.8 µM in the experiment with LOX IMVI melanoma; 25.2 µM in the experiment with MDA-MB-231 breast. For the same molecule, the TGI was 44.9 µM in the experiment on NCI/ADR-RES ovarian, 30.6 µM with SF-268 CNS, greater than 100 µM in the experiment on SR leukemia and 53.8 µM in the experiment on T-47D breast.
Take `C[C@@H](Oc1cc(-n2cnc3ccc(OC4CCN(C)CC4)cc32)sc1C(N)=O)c1ccccc1Cl`: the GI50 in the experiment on 786-0 renal is 0.0951 µM; in the experiment with ACHN renal, 0.212 µM; with BT-549 breast, 0.168 µM; in the experiment on HS 578T breast it was 0.0419 µM; in the experiment with LOX IMVI melanoma, 0.0146 µM; in the experiment on MDA-MB-231 breast it was 0.0225 µM. The GI50 is 0.0955 µM in the experiment with NCI/ADR-RES ovarian, 0.022 µM in the experiment with SF-268 CNS, 0.0103 µM with SR leukemia and 3.57 µM in the experiment with T-47D breast. The TGI with 786-0 renal was found to be 3.48 µM; with ACHN renal, 9.19 µM; in the experiment on BT-549 breast, 5.28 µM; with HS 578T breast it was 0.597 µM; in the experiment on LOX IMVI melanoma, 3.69 µM; in the experiment on MDA-MB-231 breast it was 0.53 µM. The TGI in the experiment with NCI/ADR-RES ovarian stood at 3.58 µM; with SF-268 CNS it was 4.69 µM; in the experiment on SR leukemia, 0.532 µM; in the experiment on T-47D breast it was 8.73 µM.
Turning to `COc1ccccc1Nc1cc(O)c2c(=O)cc(-c3ccccc3)oc2c1`, the GI50 in the experiment on 786-0 renal is 5.15 µM; in the experiment with ACHN renal it was 3.38 µM; in the experiment on BT-549 breast it was 4.96 µM; in the experiment with HS 578T breast, 3.61 µM; with LOX IMVI melanoma, 3.41 µM; in the experiment with MDA-MB-231 breast, 3.96 µM. The GI50 in the experiment with NCI/ADR-RES ovarian was 1.99 µM; with SF-268 CNS, 4.71 µM; in the experiment on SR leukemia, 0.529 µM; in the experiment on T-47D breast it was 4.36 µM. Besides, the TGI with 786-0 renal was 27 µM; with ACHN renal, 13 µM; in the experiment on BT-549 breast, 37.2 µM; in the experiment with HS 578T breast it was 32.6 µM; in the experiment on LOX IMVI melanoma, greater than 100 µM; in the experiment on MDA-MB-231 breast, 18.4 µM. The TGI is 18 µM with NCI/ADR-RES ovarian, 48.2 µM in the experiment on SF-268 CNS, greater than 100 µM in the experiment with SR leukemia and greater than 100 µM in the experiment on T-47D breast.
Regarding `CNC(=O)c1ccc(N2C(=S)N(c3cnc(C#N)c(C(F)(F)F)c3)C(=O)C23CCC3)cc1F`, the GI50 in the experiment with 786-0 renal is greater than 100 µM; in the experiment with ACHN renal, greater than 100 µM; with BT-549 breast, greater than 77 µM; in the experiment with HS 578T breast, greater than 100 µM; in the experiment on LOX IMVI melanoma it was greater than 100 µM; in the experiment with MDA-MB-231 breast, greater than 100 µM. Further, the GI50 in the experiment on NCI/ADR-RES ovarian was greater than 100 µM; with SF-268 CNS, greater than 100 µM; with SR leukemia it was 51.5 µM; with T-47D breast, 80.6 µM. The TGI in the experiment with 786-0 renal, in the experiment on ACHN renal, in the experiment with BT-549 breast, in the experiment with HS 578T breast, with LOX IMVI melanoma and with MDA-MB-231 breast was greater than 100 µM each time. Also, the TGI in the experiment on NCI/ADR-RES ovarian, in the experiment on SF-268 CNS, in the experiment with SR leukemia and in the experiment with T-47D breast was greater than 100 µM each time.
